In PubChem BioAssay AID1963847 (Molecular Pharmacology Branch, DTP, NCI, 2024):
pIC50: −log10 of the molar value.

System: 415267-285-R-J2-PDC complex spheroid viability
Test: Anticancer human tumor 415267-285-R-J2-PDC patient-derived breast carcinoma cell line growth inhibition [POLQ]
Settings: for pIC50: curve of first compound; for viability, T/C: stronger effect = lower value
Summary of the method: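 Complex spheroid viability model combining PDC tumour cells with endothelial (HUVEC) and MSC stromal cells. Novobiocin, ART-558 or RP6685 were tested singly and in combination with standard and investigational anticancer drugs. Each was titrated in half-log steps from near clinical Cmax, or from 10 microM where Cmax was unknown.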

[1] = second compound 0.0316 µM, first compound 0.0316 µM
[2] = second compound 0.0316 µM, first compound 0.1 µM
[3] = second compound 0.0316 µM, first compound 0.316 µM
[4] = second compound 0.0316 µM, first compound 1 µM
[5] = second compound 0.1 µM, first compound 0.0316 µM
[6] = second compound 0.1 µM, first compound 0.1 µM
[7] = second compound 0.1 µM, first compound 0.316 µM
[8] = second compound 0.1 µM, first compound 1 µM
[9] = second compound 0.316 µM, first compound 0.0316 µM
[10] = second compound 0.316 µM, first compound 0.1 µM
[11] = second compound 0.316 µM, first compound 0.316 µM
[12] = second compound 0.316 µM, first compound 1 µM
[13] = second compound 1 µM, first compound 0.0316 µM
[14] = second compound 1 µM, first compound 0.1 µM
[15] = second compound 1 µM, first compound 0.316 µM
[16] = second compound 1 µM, first compound 1 µM
[17] = second compound 3.16 µM, first compound 0.0316 µM
[18] = second compound 3.16 µM, first compound 0.1 µM
[19] = second compound 3.16 µM, first compound 0.316 µM
[20] = second compound 3.16 µM, first compound 1 µM
[21] = second compound 10 µM, first compound 0.0316 µM
[22] = second compound 10 µM, first compound 0.1 µM
[23] = second compound 10 µM, first compound 0.316 µM
[24] = second compound 10 µM, first compound 1 µM
[25] = second compound 0.0316 µM, first compound 3.16 µM
[26] = second compound 0.0316 µM, first compound 10 µM
[27] = second compound 0.1 µM, first compound 3.16 µM
[28] = second compound 0.1 µM, first compound 10 µM
[29] = second compound 0.316 µM, first compound 3.16 µM
[30] = second compound 0.316 µM, first compound 10 µM
[31] = second compound 1 µM, first compound 3.16 µM
[32] = second compound 1 µM, first compound 10 µM
[33] = second compound 3.16 µM, first compound 3.16 µM
[34] = second compound 3.16 µM, first compound 10 µM
[35] = second compound 10 µM, first compound 3.16 µM
[36] = second compound 10 µM, first compound 10 µM
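Also: spheroids exposed to compounds for one week before readout.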
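For viability, T/C in this document: luminescence used as stand-in measure of viable cells; 100% = DMSO vehicle control viability.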

In the case of `CCc1c2c(nc3ccc(O)cc13)-c1cc3c(c(=O)n1C2)COC(=O)[C@]3(O)CC` + COC1C(OC(N)=O)C(O)C(Oc2ccc3c(O)c(NC(=O)c4ccc(O)c(CC=C(C)C)c4)c(=O)oc3c2C)OC1(C)C, the pIC50 (second compound 0.0316 µM) was > 8.50, the pIC50 (second compound 0.1 µM) was > 8.50 and the pIC50 (second compound 0.316 µM) was > 8.50. The pIC50 (second compound 1 µM) was > 8.50, the pIC50 (second compound 3.16 µM) was > 8.50 and the pIC50 (second compound 10 µM) was > 8.50. The viability, T/C (second compound 0.0316 µM, first compound 0.00316 µM) was 32.7%, the viability, T/C (second compound 0.0316 µM, first compound 0.01 µM) was 10% and the viability, T/C [1] was 6.54%. It also gave a viability, T/C [2] of 4.82%, a viability, T/C [3] of 3.41% and a viability, T/C [4] of 1.27%. The viability, T/C (second compound 0.1 µM, first compound 0.00316 µM) was 38.3%, the viability, T/C (second compound 0.1 µM, first compound 0.01 µM) was 11% and the viability, T/C [5] was 7.02%. It also gave a viability, T/C [6] of 5.02%, a viability, T/C [7] of 3.21% and a viability, T/C [8] of 1.32%. The viability, T/C (second compound 0.316 µM, first compound 0.00316 µM) was 36.5%, the viability, T/C (second compound 0.316 µM, first compound 0.01 µM) was 11% and the viability, T/C [9] was 9.37%. The viability, T/C [10] was 4.84%, the viability, T/C [11] was 5.41% and the viability, T/C [12] was 1.19%. It also gave a viability, T/C (second compound 1 µM, first compound 0.00316 µM) of 43.8%, a viability, T/C (second compound 1 µM, first compound 0.01 µM) of 9.67% and a viability, T/C [13] of 7.66%. It also gave a viability, T/C [14] of 4.1%, a viability, T/C [15] of 4.05% and a viability, T/C [16] of 1.96%. For the same molecule, the viability, T/C (second compound 3.16 µM, first compound 0.00316 µM) was 39.8%, the viability, T/C (second compound 3.16 µM, first compound 0.01 µM) was 9.67% and the viability, T/C [17] was 6.74%. For the same molecule, the viability, T/C [18] was 4.81%, the viability, T/C [19] was 3.35% and the viability, T/C [20] was 1.51%. For the same molecule, the viability, T/C (second compound 10 µM, first compound 0.00316 µM) was 40.3%, the viability, T/C (second compound 10 µM, first compound 0.01 µM) was 10.1% and the viability, T/C [21] was 7.22%. It also gave a viability, T/C [22] of 4.24%, a viability, T/C [23] of 3.48% and a viability, T/C [24] of 1.63%.
For `CCc1cc2c(N3CCc4c(cc(Cn5ccnc5)cc4-c4cn(C)nc4C(F)(F)F)C3=O)cc(C)nc2c(OC)n1` + Nc1ccc(C#CCN(C(=O)Cc2ncc(C(F)(F)F)cc2C(F)(F)F)c2ccc(F)cc2)nn1, the pIC50 (second compound 0.0316 µM) was < 5.00, the pIC50 (second compound 0.1 µM) was < 5.00 and the pIC50 (second compound 0.316 µM) was < 5.00. For the same molecule, the pIC50 (second compound 1 µM) was < 5.00, the pIC50 (second compound 3.16 µM) was < 5.00 and the pIC50 (second compound 10 µM) was < 5.00. For the same molecule, the viability, T/C [1] was 91.4%, the viability, T/C [2] was 91.6% and the viability, T/C [3] was 88.7%. It also gave a viability, T/C [4] of 85.9%, a viability, T/C [25] of 82.5% and a viability, T/C [26] of 66.7%. It also gave a viability, T/C [5] of 99.5%, a viability, T/C [6] of 87.1% and a viability, T/C [7] of 80.8%. It also gave a viability, T/C [8] of 94.8%, a viability, T/C [27] of 88.1% and a viability, T/C [28] of 66.8%. It also gave a viability, T/C [9] of 91.7%, a viability, T/C [10] of 88.8% and a viability, T/C [11] of 98.4%. For the same molecule, the viability, T/C [12] was 93.2%, the viability, T/C [29] was 80% and the viability, T/C [30] was 68.1%. For the same molecule, the viability, T/C [13] was 86%, the viability, T/C [14] was 94.7% and the viability, T/C [15] was 101%. The viability, T/C [16] was 94.9%, the viability, T/C [31] was 84% and the viability, T/C [32] was 64.1%. The viability, T/C [17] was 97.6%, the viability, T/C [18] was 87.9% and the viability, T/C [19] was 86.5%. It also gave a viability, T/C [20] of 104%, a viability, T/C [33] of 86.6% and a viability, T/C [34] of 70.8%. It also gave a viability, T/C [21] of 98.9%, a viability, T/C [22] of 79.9% and a viability, T/C [23] of 97.4%. It also gave a viability, T/C [24] of 82.2%, a viability, T/C [35] of 79.1% and a viability, T/C [36] of 65.1%.
For `O=C(c1cc(Cc2n[nH]c(=O)c3ccccc23)ccc1F)N1CCN(C(=O)C2CC2)CC1` + Nc1ccc(C#CCN(C(=O)Cc2ncc(C(F)(F)F)cc2C(F)(F)F)c2ccc(F)cc2)nn1, the pIC50 (second compound 0.0316 µM) was < 5.00, the pIC50 (second compound 0.1 µM) was < 5.00 and the pIC50 (second compound 0.316 µM) was < 5.00. The pIC50 (second compound 1 µM) was < 5.00, the pIC50 (second compound 3.16 µM) was < 5.00 and the pIC50 (second compound 10 µM) was < 5.00. The viability, T/C [1] was 100%, the viability, T/C [2] was 106% and the viability, T/C [3] was 106%. It also gave a viability, T/C [4] of 97.5%, a viability, T/C [25] of 96% and a viability, T/C [26] of 99%. For the same molecule, the viability, T/C [5] was 98.4%, the viability, T/C [6] was 103% and the viability, T/C [7] was 109%. The viability, T/C [8] was 97.2%, the viability, T/C [27] was 108% and the viability, T/C [28] was 90.8%. For the same molecule, the viability, T/C [9] was 106%, the viability, T/C [10] was 115% and the viability, T/C [11] was 101%. For the same molecule, the viability, T/C [12] was 114%, the viability, T/C [29] was 101% and the viability, T/C [30] was 105%. The viability, T/C [13] was 108%, the viability, T/C [14] was 109% and the viability, T/C [15] was 108%. It also gave a viability, T/C [16] of 98.5%, a viability, T/C [31] of 110% and a viability, T/C [32] of 108%. The viability, T/C [17] was 101%, the viability, T/C [18] was 101% and the viability, T/C [19] was 100%. It also gave a viability, T/C [20] of 101%, a viability, T/C [33] of 105% and a viability, T/C [34] of 115%. It also gave a viability, T/C [21] of 98.9%, a viability, T/C [22] of 96.9% and a viability, T/C [23] of 113%. It also gave a viability, T/C [24] of 107%, a viability, T/C [35] of 97.8% and a viability, T/C [36] of 102%.
